Data reported in US20240109900A1, “AZABICYCLIC SHP2 INHIBITORS” (IRBM S.P.A., priority 2021, published 2024).
Read-outs that look alike come from different tables or passages of the source.

Tests used:
[1] = system: ERK phosphorylation in KYSE-520 cells; assay: Phospho-ERK cellular assay; format: cell-based; conditions: read-out: PERK IC50
Summary of the method: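 TR-FRET read-out of ERK1/2 Thr202/Tyr204 phosphorylation was taken after overnight antibody incubation at room temperature. Before that, KYSE-520 cells were treated 2 h at 37 °C with compound dilutions and lysed 30 min. Percent inhibition relative to vehicle and cell-free wells was fitted four-parametrically to give IC50.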

[2] = target: SHP-2 enzyme (Met1-Leu525) (Homo sapiens (Human), UniProt Q06124); assay: SHP2 inhibition enzymatic assay; format: biochemical; conditions: 0.5 nM SHP-2 activated by 500 nM IRS1 peptide, 75 μM DiFMUP substrate; read-out: SHP2wt-IC50
Summary of the method: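 Compounds were preincubated 30 min with 0.5 nM SHP-2 (Met1-Leu525) plus 500 nM IRS1 activating peptide (pH 7.2 HEPES, 5 mM DTT), then 75 μM DiFMUP substrate reacted 30 min at room temperature. After bpV quench, DiFMUP fluorescence gave % inhibition; four-parameter logistic fit yielded IC50.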

[3] = Homo sapiens, KYSE-520, 2 h, KYSE-520 cells, 2 h at 37° C., phospho-ERK1/2 (Thr202/Tyr204) TR-FRET
[4] = KYSE-520 cells, 2 h at 37° C., phospho-ERK1/2 (Thr202/Tyr204) TR-FRET

SHP-2 enzyme (Met1-Leu525), sequence (Q06124 1-525): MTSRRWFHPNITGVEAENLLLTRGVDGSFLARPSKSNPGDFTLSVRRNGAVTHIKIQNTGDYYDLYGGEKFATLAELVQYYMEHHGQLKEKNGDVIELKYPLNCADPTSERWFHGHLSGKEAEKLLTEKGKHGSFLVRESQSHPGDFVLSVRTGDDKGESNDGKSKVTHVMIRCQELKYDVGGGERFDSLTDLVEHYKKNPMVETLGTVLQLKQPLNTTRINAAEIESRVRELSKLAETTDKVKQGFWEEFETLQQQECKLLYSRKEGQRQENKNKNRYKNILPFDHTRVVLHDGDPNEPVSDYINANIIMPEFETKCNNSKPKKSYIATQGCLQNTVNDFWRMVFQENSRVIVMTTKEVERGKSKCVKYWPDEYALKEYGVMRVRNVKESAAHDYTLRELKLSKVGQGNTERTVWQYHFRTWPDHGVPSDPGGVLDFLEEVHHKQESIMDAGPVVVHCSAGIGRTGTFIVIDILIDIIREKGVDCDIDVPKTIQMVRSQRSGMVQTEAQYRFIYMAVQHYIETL

| SMILES | IC50 [1, 3] [nM] | IC50 [2] [nM] | IC50 [1, 4] [nM] | IC50 ([1]; Homo sapiens, KYSE-520, 2 h) [nM] |
| --- | --- | --- | --- | --- |
| Cc1cc([C@@]2(CN)[C@@H]3CCN(c4cnc5c(-c6ccnc7cccc(F)c67)n[nH]c5n4)C[C@@H]32)no1 [Example 41, ((1S,6R,7S)-3-(3-(5-fluoroquinolin-4-yl)-1H-pyrazolo[3,4-b]pyrazin-6-yl)-7-(5-methylisoxazol-3-yl)-3-azabicyclo[4.1.0]heptan-7-yl)methanamine] | < 1000 | < 500 |  |  |
| Cc1nc(-c2ccc(-c3n[nH]c4nc(N5CC[C@@H]6[C@H](C5)[C@@]6(CN)c5ccccc5F)cnc34)c(Cl)c2)no1 [Example 377, ((1S,6R,7R)-3-(3-(2-chloro-4-(5-methyl-1,2,4-oxadiazol-3-yl)phenyl)-1H-pyrazolo[3,4-b]pyrazin-6-yl)-7-(2-fluorophenyl)-3-azabicyclo[4.1.0]heptan-7-yl)methanamine] | < 1000 | < 500 |  |  |
| NC[C@]1(c2ccccc2F)[C@@H]2CCN(c3cnc4c(-c5ccc(S(=O)(=O)F)c6ncccc56)n[nH]c4n3)C[C@@H]21 [Example 508, 5-(6-((1S,6R,7R)-7-(aminomethyl)-7-(2-fluorophenyl)-3-azabicyclo[4.1.0]heptan-3-yl)-1H-pyrazolo[3,4-b]pyrazin-3-yl)quinoline-8-sulfonyl fluoride] |  | < 500 |  | < 1000 |
| Cc1cc(C2(CN)C3CCN(c4cnc5c(-c6ccnc7cccnc67)n[nH]c5n4)CC32)no1 (stereo not drawn) [Example 35, (3-(3-(1,5-naphthyridin-4-yl)-1H-pyrazolo[3,4-b]pyrazin-6-yl)-7-(5-methylisoxazol-3-yl)-3-azabicyclo[4.1.0]heptan-7-yl)methanamine] | 1000 to 5000 | 500 to 3000 |  |  |
| NCC1(c2cccnc2)C2CCN(c3cnc4c(-c5cccc(Cl)c5Cl)n[nH]c4n3)CC21 (stereo not drawn) [Example 2, [3-[3-(2,3-dichlorophenyl)-1H-pyrazolo[3,4-b]pyrazin-6-yl]-7-(pyridin-3-yl)-3-azabicyclo[4.1.0]heptan-7-yl]methanamine] | < 1000 | < 500 |  |  |
| Cc1c(-c2n[nH]c3nc(N4CC[C@@H]5[C@H](C4)[C@@]5(CN)c4ccccc4C(F)(F)F)cnc23)ccc2nn(C)cc12 [Example 182, ((1S,6R,7R)-3-(3-(2,4-dimethyl-2H-indazol-5-yl)-1H-pyrazolo[3,4-b]pyrazin-6-yl)-7-(2-(trifluoromethyl)phenyl)-3-azabicyclo[4.1.0]heptan-7-yl)methanamine] | < 1000 | < 500 |  |  |
| Cc1csc([C@@]2(CN)[C@@H]3CN(c4cnc5c(-c6ccc7nscc7c6Cl)n[nH]c5n4)C[C@@H]32)n1 [Example 463] |  | < 500 | < 1000 |  |
| Cc1ccc(-c2n[nH]c3nc(N4CC[C@@H]5[C@H](C4)[C@@]5(CN)c4ccccc4F)cnc23)c2ccnn12 [Example 161, ((1S,6R,7R)-7-(2-fluorophenyl)-3-(3-(7-methylpyrazolo[1,5-a]pyridin-4-yl)-1H-pyrazolo[3,4-b]pyrazin-6-yl)-3-azabicyclo[4.1.0]heptan-7-yl)methanamine] | < 1000 | < 500 |  |  |
| Cc1csc([C@@]2(CN)[C@@H]3CN(c4cnc5nc(Sc6ccnc(N)c6Cl)ccc5n4)C[C@@H]32)n1 [Example 497, 4-((2-((1R,5S,6r)-6-(aminomethyl)-6-(4-methylthiazol-2-yl)-3-azabicyclo[3.1.0]hexan-3-yl)pyrido[2,3-b]pyrazin-6-yl)thio)-3-chloropyridin-2-amine] | < 1000 | < 500 |  |  |
| Cc1cc(C2(CN)C3CCN(c4cnc5c(-c6ccc(C)c7ncccc67)n[nH]c5n4)CC32)no1 (stereo not drawn) [Example 21, (7-(5-methylisoxazol-3-yl)-3-(3-(8-methylquinolin-5-yl)-1H-pyrazolo[3,4-b]pyrazin-6-yl)-3-azabicyclo[4.1.0]heptan-7-yl)methanamine] | < 1000 | < 500 |  |  |

The next lines start with results.

| IC50 [1, 3] [nM] | IC50 [2] [nM] | IC50 [1, 4] [nM] | SMILES | IC50 ([1]; Homo sapiens, KYSE-520, 2 h) [nM] |
| --- | --- | --- | --- | --- |
| < 1000 | < 500 |  | NC[C@]1(c2ccccc2F)[C@@H]2CCN(c3cnc4c(-c5ccnc(N6CC[C@H](CO)C6)c5Cl)n[nH]c4n3)C[C@@H]21 [Example 386, ((S)-1-(4-(6-((1S,6R,7R)-7-(aminomethyl)-7-(2-fluorophenyl)-3-azabicyclo[4.1.0]heptan-3-yl)-1H-pyrazolo[3,4-b]pyrazin-3-yl)-3-chloropyridin-2-yl)pyrrolidin-3-yl)methanol] |  |
| < 1000 | < 500 |  | NC[C@]1(c2ccccc2F)[C@@H]2CCN(c3cnc4c(-c5ccc6c(c5)C(=O)NCC6)n[nH]c4n3)C[C@@H]21 [Example 251, 7-(6-((1S,6R,7R)-7-(aminomethyl)-7-(2-fluorophenyl)-3-azabicyclo[4.1.0]heptan-3-yl)-1H-pyrazolo[3,4-b]pyrazin-3-yl)-3,4-dihydroisoquinolin-1(2H)-one] |  |
| < 1000 | < 500 |  | Cc1csc(C2(CN)C3CCN(c4cnc5c(-c6cccc7ccccc67)n[nH]c5n4)CC32)n1 (stereo not drawn) [Example 89, (7-(4-methylthiazol-2-yl)-3-(3-(naphthalen-1-yl)-1H-pyrazolo[3,4-b]pyrazin-6-yl)-3-azabicyclo[4.1.0]heptan-7-yl)methanamine] |  |
| < 1000 | < 500 |  | Cc1nc2cc(-c3n[nH]c4nc(N5CC[C@@H]6[C@H](C5)[C@@]6(CN)c5ccccc5F)cnc34)ccc2[nH]1 [Example 337, ((1S,6R,7R)-7-(2-fluorophenyl)-3-(3-(2-methyl-1H-benzo[d]imidazol-5-yl)-1H-pyrazolo[3,4-b]pyrazin-6-yl)-3-azabicyclo[4.1.0]heptan-7-yl)methanamine] |  |
| < 1000 | < 500 |  | Cc1c(-c2n[nH]c3nc(N4CC[C@@H]5[C@H](C4)[C@@]5(CN)c4ccccc4F)cnc23)ccc2ncccc12 [Example 172, ((1S,6R,7R)-7-(2-fluorophenyl)-3-(3-(5-methylquinolin-6-yl)-1H-pyrazolo[3,4-b]pyrazin-6-yl)-3-azabicyclo[4.1.0]heptan-7-yl)methanamine] |  |
| < 1000 | < 500 |  | Cc1conc1C1(CN)C2CCN(c3cnc4c(-c5ccc6nn(C)cc6c5Cl)n[nH]c4n3)CC21 (stereo not drawn) [Example 15, (3-(3-(4-chloro-2-methyl-2H-indazol-5-yl)-1H-pyrazolo[3,4-b]pyrazin-6-yl)-7-(4-methylisoxazol-3-yl)-3-azabicyclo[4.1.0]heptan-7-yl)methanamine] |  |
| < 1000 | < 500 |  | Cn1cc(-c2ccc(-c3n[nH]c4nc(N5CC[C@@H]6[C@H](C5)[C@@]6(CN)c5ccccc5F)cnc34)c(Cl)c2)cn1 [Example 297, ((1S,6R,7R)-3-(3-(2-chloro-4-(1-methyl-1H-pyrazol-4-yl)phenyl)-1H-pyrazolo[3,4-b]pyrazin-6-yl)-7-(2-fluorophenyl)-3-azabicyclo[4.1.0]heptan-7-yl)methanamine] |  |
| < 1000 | < 500 |  | COc1ccc2cc(-c3n[nH]c4nc(N5CC[C@@H]6[C@H](C5)[C@@]6(CN)c5cc(C)on5)cnc34)cnc2c1 [Example 151, ((1S,6R,7S)-3-(3-(7-methoxyquinolin-3-yl)-1H-pyrazolo[3,4-b]pyrazin-6-yl)-7-(5-methylisoxazol-3-yl)-3-azabicyclo[4.1.0]heptan-7-yl)methanamine] |  |
| < 1000 | < 500 |  | NC[C@]1(c2ccccc2F)[C@@H]2CCN(c3cnc4c(-c5ccc(O)cc5F)n[nH]c4n3)C[C@@H]21 [Example 332, 4-(6-((1S,6R,7R)-7-(aminomethyl)-7-(2-fluorophenyl)-3-azabicyclo[4.1.0]heptan-3-yl)-1H-pyrazolo[3,4-b]pyrazin-3-yl)-3-fluorophenol] |  |
|  | < 500 | < 1000 | Cc1csc([C@@]2(CN)[C@@H]3CN(c4cnc5c(-c6ccc7nn(C(F)F)cc7c6Cl)n[nH]c5n4)C[C@@H]32)n1 [Example 466] |  |
| < 1000 | < 500 |  | NCC1(c2cccc(F)c2)C2CCN(c3nc4[nH]nc(-c5ccccc5)c4nc3CO)CC21 (stereo not drawn) [Example 56, (6-(7-(aminomethyl)-7-(3-fluorophenyl)-3-azabicyclo[4.1.0]heptan-3-yl)-3-phenyl-1H-pyrazolo[3,4-b]pyrazin-5-yl)methanol] |  |
| < 1000 | < 500 |  | Cc1c(-c2n[nH]c3nc(N4CC[C@@H]5[C@H](C4)[C@@]5(CN)c4ncccc4F)cnc23)ccc2nn(C)cc12 [Example 179, ((1S,6R,7S)-3-(3-(2,4-dimethyl-2H-indazol-5-yl)-1H-pyrazolo[3,4-b]pyrazin-6-yl)-7-(3-fluoropyridin-2-yl)-3-azabicyclo[4.1.0]heptan-7-yl)methanamine] |  |
| < 1000 | < 500 |  | NC[C@]1(c2ccccc2F)[C@@H]2CCN(c3cnc4nc(Oc5ccc(F)cc5)ccc4n3)C[C@@H]21 [Example 409, ((1S,6R,7R)-3-(6-(4-fluorophenoxy)pyrido[2,3-b]pyrazin-2-yl)-7-(2-fluorophenyl)-3-azabicyclo[4.1.0]heptan-7-yl)methanamine] |  |
| < 1000 | < 500 |  | Cc1csc([C@@]2(CN)[C@@H]3CN(c4cnc(Sc5ccn6cc(C(=O)N(C)C)nc6c5Cl)cn4)C[C@@H]32)n1 [Example 447, 7-((5-((1R,5S,6r)-6-(aminomethyl)-6-(4-methylthiazol-2-yl)-3-azabicyclo[3.1.0]hexan-3-yl)pyrazin-2-yl)thio)-8-chloro-N,N-dimethylimidazo[1,2-a]pyridine-2-carboxamide] |  |
